Source: patent US10150760B2, “Compounds for use in preparing heterocyclic triazole agonists of the APJ receptor” (AMGEN INC., priority 2016, dated 2018)

Molecular target: human APJ receptor (Homo sapiens (Human), UniProt P35414)
Assay: [35S]GTPγS binding assay on membranes from CHO cells stably expressing human APJ receptor
Type: biochemical
Settings: read-out: Activity hAPJ SPA EC50 IP
Method in brief: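 Agonist-driven [35S]GTPγS (0.2 nM) binding was measured over 90 min at room temperature on human APJ-expressing CHO membranes with bead capture, in buffer containing 3 μM GDP, 200 mM NaCl and 5 mM MgCl2 (pH 7.5). Excess unlabelled GTPγS (100 μM) gave nonspecific signal; EC50 from non-linear fits.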

human APJ receptor, sequence (P35414 whole entry): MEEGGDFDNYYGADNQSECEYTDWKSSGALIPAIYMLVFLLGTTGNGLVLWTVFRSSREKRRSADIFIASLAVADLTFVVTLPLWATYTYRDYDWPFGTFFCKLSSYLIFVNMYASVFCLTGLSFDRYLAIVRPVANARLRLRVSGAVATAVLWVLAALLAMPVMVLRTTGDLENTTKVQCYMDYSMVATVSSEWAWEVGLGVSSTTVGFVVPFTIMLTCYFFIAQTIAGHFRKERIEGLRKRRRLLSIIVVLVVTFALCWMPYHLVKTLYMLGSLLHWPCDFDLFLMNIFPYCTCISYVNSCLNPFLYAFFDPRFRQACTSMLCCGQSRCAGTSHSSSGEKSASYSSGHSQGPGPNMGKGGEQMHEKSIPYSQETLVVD

## CO[C@H](c1ncc(Cl)cn1)[C@H](C)S(=O)(=O)Nc1nnc([C@@H]2CCCO2)n1-c1ccccc1C [Example 242.0, (1R,2S)-1-(5-chloro-2-pyrimidinyl)-1-methoxy-N-(4-(2-methylphenyl)-5-((2S)-tetrahydro-2-furanyl)-4H-1,2,4-triazol-3-yl)-2-propanesulfonamide]
  EC50: 8.7 nM

## CO[C@H](c1ncc(Cl)cn1)[C@H](C)S(=O)(=O)Nc1nnc([C@@H]2CCCO2)n1-c1ccccc1Cl [Example 243.0, (1R,2S)-N-(4-(2-chlorophenyl)-5-((2S)-tetrahydro-2-furanyl)-4H-1,2,4-triazol-3-yl)-1-(5-chloro-2-pyrimidinyl)-1-methoxy-2-propanesulfonamide]
  EC50: 5.6 nM

## CO[C@H](c1ncc(Cl)cn1)[C@H](C)S(=O)(=O)Nc1nnc([C@@H]2CCCO2)n1-c1ccccc1F [Example 244.0, (1R,2S)-1-(5-chloro-2-pyrimidinyl)-N-(4-(2-fluorophenyl)-5-((2S)-tetrahydro-2-furanyl)-4H-1,2,4-triazol-3-yl)-1-methoxy-2-propanesulfonamide]
  EC50: 21 nM

## COCC(COC)n1c(NS(=O)(=O)[C@@H](C)[C@H](OC)c2ncc(Cl)cn2)nnc1[C@H]1CCCO1 [Example 330.0, (1R,2S)-1-(5-chloro-2-pyrimidinyl)-N-(4-(1,3-dimethoxy-2-propanyl)-5-((2R)-tetrahydro-2-furanyl)-4H-1,2,4-triazol-3-yl)-1-methoxy-2-propanesulfonamide]
  EC50: 160 nM

## COCC(COC)n1c(NS(=O)(=O)[C@@H](C)[C@H](OC)c2ncc(Cl)cn2)nnc1[C@@H]1CCCO1 [Example 332.0, (1R,2S)-1-(5-chloro-2-pyrimidinyl)-N-(4-(1,3-dimethoxy-2-propanyl)-5-((2S)-tetrahydro-2-furanyl)-4H-1,2,4-triazol-3-yl)-1-methoxy-2-propanesulfonamide]
  EC50: 14 nM

## COc1cccc(OC)c1-n1c(NS(=O)(=O)CCc2ccc(F)cc2C#N)nnc1[C@@H]1CCOC1 [Example 345.0, (S)-2-(2-cyano-4-fluorophenyl)-N-(4-(2,6-dimethoxyphenyl)-5-(tetrahydrofuran-3-yl)-4H-1,2,4-triazol-3-yl) ethanesulfonamide]
  EC50: 100 nM

## COc1cccc(OC)c1-n1c(NS(=O)(=O)CCc2ncc(Cl)cn2)nnc1[C@@H]1CCOC1 [Example 386.0, 2-(5-chloro-2-pyrimidinyl)-N-(4-(2,6-dimethoxyphenyl)-5-((3S)-tetrahydro-3-furanyl)-4H-1,2,4-triazol-3-yl)ethanesulfonamide]
  EC50: 81 nM

## COc1cccc(OC)c1-n1c(NS(=O)(=O)CCc2ncc(Cl)cn2)nnc1[C@@H]1CCCO1 [Example 388.0, 2-(5-chloro-2-pyrimidinyl)-N-(4-(2,6-dimethoxyphenyl)-5-((2S)-tetrahydro-2-furanyl)-4H-1,2,4-triazol-3-yl)ethanesulfonamide]
  EC50: 9.8 nM

## COc1cccc(OC)c1-n1c(NS(=O)(=O)CCc2ncc(Cl)cn2)nnc1[C@H]1CCCO1 [Example 389.0, 2-(5-chloro-2-pyrimidinyl)-N-(4-(2,6-dimethoxyphenyl)-5-((2R)-tetrahydro-2-furanyl)-4H-1,2,4-triazol-3-yl)ethanesulfonamide]
  EC50: 96 nM

## (1R,2)S-1-(5-chloropyrimidin-2-yl)-N-(5-((S)-5,5-dimethyltetrahydrofuran-2-yl)-4-(tetrahydro-2H-pyran-4-yl)-4H-1,2,4-triazol-3-yl)-1-methoxypropane-2-sulfonamide or (1R,2S)-1-(5-chloropyrimidin-2-yl)-N-(5-((R)-5,5-dimethyltetrahydrofuran-2-yl)-4-(tetrahydro-2H-pyran-4-yl)-4H-1,2,4-triazol-3-yl)-1-methoxypropane-2-sulfonamide [Example 222.0]
  EC50: 740 nM

## (1R,2)S-N-(4-(2,6-dimethoxyphenyl)-5-((R)-1,4-dioxan-2-yl)-4H-1,2,4-triazol-3-yl)-1-methoxy-1-(5-methylpyrimidin-2-yl)propane-2-sulfonamide or (1R,2S)-N-(4-(2,6-dimethoxyphenyl)-5-((S)-1,4-dioxan-2-yl)-4H-1,2,4-triazol-3-yl)-1-methoxy-1-(5-methylpyrimidin-2-yl)propane-2-sulfonamide [Example 201.0]
  EC50: 31 nM

## (1R,2S)-1-(5-chloro-2-pyridinyl)-N-(4-(1,3-dimethoxy-2-propanyl)-5-((2R,5R)-5-methyltetrahydro-2-furanyl)-4H-1,2,4-triazol-3-yl)-1-methoxy-2-propanesulfonamide or (1R,2S)-1-(5-chloro-2-pyridinyl)-N-(4-(1,3-dimethoxy-2-propanyl)-5-((2S,5S)-5-methyltetrahydro-2-furanyl)-4H-1,2,4-triazol-3-yl)-1-methoxy-2-propanesulfonamide [Example 380.0]
  EC50: 60 nM

## (1R,2S)-1-(5-chloro-2-pyridinyl)-N-(4-(1,3-dimethoxy-2-propanyl)-5-((2R,5R)-5-methyltetrahydro-2-furanyl)-4H-1,2,4-triazol-3-yl)-1-methoxy-2-propanesulfonamide or (1R,2S)-1-(5-chloro-2-pyridinyl)-N-(4-(1,3-dimethoxy-2-propanyl)-5-((2S,5S)-5-methyltetrahydro-2-furanyl)-4H-1,2,4-triazol-3-yl)-1-methoxy-2-propanesulfonamide [Example 381.0]
  EC50: 2.1 nM

## (1R,2S)-1-(5-chloro-2-pyrimidinyl)-N-(4-(1,3-dimethoxy-2-propanyl)-5-((2R)-5,5-dimethyltetrahydro-2-furanyl)-4H-1,2,4-triazol-3-yl)-1-methoxy-2-propanesulfonamide or (1R,2S)-1-(5-chloro-2-pyrimidinyl)-N-(4-(1,3-dimethoxy-2-propanyl)-5-((2S)-5,5-dimethyltetrahydro-2-furanyl)-4H-1,2,4-triazol-3-yl)-1-methoxy-2-propanesulfonamide [Example 307.0]
  EC50: 14 nM

## (1R,2S)-1-(5-chloro-2-pyrimidinyl)-N-(4-(1,3-dimethoxy-2-propanyl)-5-((2R)-5,5-dimethyltetrahydro-2-furanyl)-4H-1,2,4-triazol-3-yl)-1-methoxy-2-propanesulfonamide or (1R,2S)-1-(5-chloro-2-pyrimidinyl)-N-(4-(1,3-dimethoxy-2-propanyl)-5-((2S)-5,5-dimethyltetrahydro-2-furanyl)-4H-1,2,4-triazol-3-yl)-1-methoxy-2-propanesulfonamide [Example 308.0]
  EC50: 410 nM

## (1R,2S)-1-(5-chloro-2-pyrimidinyl)-N-(4-(1,3-dimethoxy-2-propanyl)-5-((2S,5S)-5-methyltetrahydro-2-furanyl)-4H-1,2,4-triazol-3-yl)-1-methoxy-2-propanesulfonamide or (1R,2S)-1-(5-chloro-2-pyrimidinyl)-N-(4-(1,3-dimethoxy-2-propanyl)-5-((2R,5R)-5-methyltetrahydro-2-furanyl)-4H-1,2,4-triazol-3-yl)-1-methoxy-2-propanesulfonamide [Example 252.0]
  EC50: 250 nM

## (1R,2S)-1-(5-chloro-2-pyrimidinyl)-N-(4-(1,3-dimethoxy-2-propanyl)-5-((2S,5S)-5-methyltetrahydro-2-furanyl)-4H-1,2,4-triazol-3-yl)-1-methoxy-2-propanesulfonamide or (1R,2S)-1-(5-chloro-2-pyrimidinyl)-N-(4-(1,3-dimethoxy-2-propanyl)-5-((2R,5R)-5-methyltetrahydro-2-furanyl)-4H-1,2,4-triazol-3-yl)-1-methoxy-2-propanesulfonamide [Example 253.0]
  EC50: 6.3 nM

## (1R,2S)-1-(5-chloro-2-pyrimidinyl)-N-(4-(1,3-dimethoxy-2-propanyl)-5-((3S)-tetrahydro-3-furanyl)-4H-1,2,4-triazol-3-yl)-1-methoxy-2-propanesulfonamide or (1R,2S)-1-(5-chloro-2-pyrimidinyl)-N-(4-(1,3-dimethoxy-2-propanyl)-5-((3R)-tetrahydro-3-furanyl)-4H-1,2,4-triazol-3-yl)-1-methoxy-2-propanesulfonamide [Example 305.0]
  EC50: 740 nM

## (1R,2S)-1-(5-chloro-2-pyrimidinyl)-N-(4-(1,3-dimethoxy-2-propanyl)-5-((3S)-tetrahydro-3-furanyl)-4H-1,2,4-triazol-3-yl)-1-methoxy-2-propanesulfonamide or (1R,2S)-1-(5-chloro-2-pyrimidinyl)-N-(4-(1,3-dimethoxy-2-propanyl)-5-((3R)-tetrahydro-3-furanyl)-4H-1,2,4-triazol-3-yl)-1-methoxy-2-propanesulfonamide [Example 306.0]
  EC50: 900 nM

## (1R,2S)-1-(5-chloropyridin-2-yl)-N-(4-(2,6-dimethoxyphenyl)-5-((R)-1,4-dioxan-2-yl)-4H-1,2,4-triazol-3-yl)-1-methoxypropane-2-sulfonamide or (1R,2S)-1-(5-chloropyridin-2-yl)-N-(4-(2,6-dimethoxyphenyl)-5-((S)-1,4-dioxan-2-yl)-4H-1,2,4-triazol-3-yl)-1-methoxypropane-2-sulfonamide [Example 264.0]
  EC50: 1.2 nM

## (1R,2S)-1-(5-chloropyrimidin-2-yl)-1-methoxy-N-(4-(1-methylcyclopropyl)-5-((2S,5S)-5-methyltetrahydrofuran-2-yl)-4H-1,2,4-triazol-3-yl)propane-2-sulfonamide or (1R,2S)-1-(5-chloropyrimidin-2-yl)-1-methoxy-N-(4-(1-methylcyclopropyl)-5-((2R,5R)-5-methyltetrahydrofuran-2-yl)-4H-1,2,4-triazol-3-yl)propane-2-sulfonamide [Example 199.0]
  EC50: 2.7 nM

## (1R,2S)-1-(5-chloropyrimidin-2-yl)-1-methoxy-N-(4-(1-methylcyclopropyl)-5-((2S,5S)-5-methyltetrahydrofuran-2-yl)-4H-1,2,4-triazol-3-yl)propane-2-sulfonamide or (1R,2S)-1-(5-chloropyrimidin-2-yl)-1-methoxy-N-(4-(1-methylcyclopropyl)-5-((2R,5R)-5-methyltetrahydrofuran-2-yl)-4H-1,2,4-triazol-3-yl)propane-2-sulfonamide [Example 200.0]
  EC50: 290 nM
